The assay addresses T1, 20S proteasome, chymotrypsin-like activity (β5 subunit) (Oryctolagus cuniculus, UniProt G1T4Q9).
T1 sequence (G1T4Q9 1-263): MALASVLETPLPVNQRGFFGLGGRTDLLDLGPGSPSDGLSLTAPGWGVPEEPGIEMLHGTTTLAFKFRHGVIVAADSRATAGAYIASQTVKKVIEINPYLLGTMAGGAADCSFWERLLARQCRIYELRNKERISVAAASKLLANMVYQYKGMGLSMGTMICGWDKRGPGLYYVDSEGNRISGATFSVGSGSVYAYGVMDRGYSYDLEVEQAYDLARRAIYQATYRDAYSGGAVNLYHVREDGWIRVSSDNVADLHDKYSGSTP
In words: fluorogenic Suc-LLVY-AMC hydrolysis by purified […] proteasome, […] h. The assay is classed as biochemical.

As to `COc1cccc2c1[O][Cu-3]13([O]C(=O)C(CCSC)[N+]1=C2)[n+]1cccc2ccc4ccc[n+]3c4c21` (stereo not shown) [C1, [Cu(L1)(Phen)]·9H2O], 13.3 µM corresponded to half-maximal inhibition (IC50).
`COc1cccc2c1[O][Cu-3]13([O]C(=O)[C@H](CCSC)[N+]1=C2)[n+]1ccccc1-c1cccc[n+]13` [C2, [Cu(L1)(Bpy)]·3H2O] had an IC50 of 46.5 µM.
The same measure for `CC(C)[C@H]1C(=O)[O][Cu-3]23([O]c4ccc5ccccc5c4C=[N+]12)[n+]1cccc2ccc4ccc[n+]3c4c21` [C3, [Cu(L2)(Phen)]·3H2O]: 11.3 µM.
For `CC(C)[C@H]1C(=O)[O][Cu-3]23([O]c4ccc5ccccc5c4C=[N+]12)[n+]1ccccc1-c1cccc[n+]13` [C4, [Cu(L2)(Bpy)]·3H2O], inhibition was half-maximal at 42.5 µM (IC50).

These data come from paper PMC3676669 (Journal of inorganic biochemistry, 2012).
